Experimental data from patent US20240254121A1, “ALKYLAMIDE SUBSTITUTED, ANNULATED IMIDAZOLES AND USE THEREOF AS INSECTICIDES” (Bayer Aktiengesellschaft, priority 2021, published 2024).

Experiments:
Assay type in all cases: in vivo
[1] = test system: fall armyworm larvae (Spodoptera frugiperda); assay: Spodoptera frugiperda spray test; conditions: 168 h, maize leaf sections, after 7 days
Protocol: Spodoptera frugiperda—Spray Test • Solvent: 78.0 parts by weight acetone • 1.5 parts by weight dimethylformamide • Emulsifier: alkylarylpolyglycol ether
(§1) To produce a suitable preparation of active compound, 1 part by weight of active compound is mixed with the stated amount of solvents and is diluted with water, containing an emulsifier concentration of 1000 ppm, to the desired concentration. Further test concentrations are prepared by dilution with emulsifier containing water.
Maize (Zea mays) leaf sections are sprayed with a preparation of the active ingredient of the desired concentration. Once dry, the leaf sections are infested with fall armyworm larvae (Spodoptera frugiperda).
After 7 days mortality in % is determined. 100% means all caterpillars have been killed and 0% means none of the caterpillars have been killed.

[2] = test system: adult mosquitoes Aedes aegypti strain MONHEIM; assay: Aedes aegypti test (AEDSAE surface treatment & contact assay); conditions: 24 hours after contact, read-out: efficacy (mortality); for mortality at 4 mg/m2: surface concentration 4 mg/m^2, 30 minutes exposure; for mortality at 20 mg/m2: surface concentration 20 mg/m^2, 30 minutes exposure
Protocol: Aedes aegypti Test (AEDSAE Surface Treatment & Contact Assay) • Solvent: Aceton+2000 ppm rapeseed oil methyl ester (RME)
In order to produce a sufficient, active ingredient containing solution it is necessary to solve the test compound in the solvent-mix (acetone at 2 mg/ml/RME 2000 ppm). This solution is pipetted onto a glazed tile and after evaporation of the acetone, adult mosquitoes of the species Aedes aegypti strain MONHEIM are placed onto the dried surface. The exposure time is 30 minutes. Mortality in percent (%) is determined 24 hours after contact of the insects to the treated surface. 100% mortality means that all tested insects are dead, whereas 0% means that no insect died.

[3] = test system: larvae of the banded cucumber beetle (Diabrotica balteata); assay: Diabrotica balteata spray test; conditions: 168 h, 100 g/ha (=32 μg/well), wheat seeds, after 7 days, read-out: efficacy (seedling growth)
Protocol: Diabrotica Balteata—Spray Test
• Solvent: 78.0 Parts by Weight of Acetone • 1.5 parts by weight of dimethylformamide • Emulsifier: Alkylarylpolyglycol Ether
(§2) To produce a suitable preparation of active compound, 1 part by weight of active compound is mixed with the stated amount of solvent, and the concentrate is diluted with water, containing an emulsifier concentration of 1000 ppm, to the desired concentration. Further test concentrations are prepared by dilution with emulsifier containing water.
Soaked wheat seeds (Triticum aestivum) are placed in a multiple well plate filled with agar and some water and are incubated for 1 day to germinate (5 seeds per well). The germinated wheat seeds are sprayed with a test solution containing the desired concentration of the active ingredient. Afterwards each unit is infected with 10-20 larvae of the banded cucumber beetle (Diabrotica balteata).
After 7 days efficacy in % is determined. 100% means all the seedlings have grown up like in the untreated, uninfected control; 0% means none of the seedlings have grown.

[4] = test system: green peach aphid (Myzus persicae); assay: Myzus persicae oral test; conditions: 120 h, after 5 days
Protocol: Myzus persicae—Oral Test • Solvent: 100 parts by weight acetone
(§3) To produce a suitable preparation of active compound, 1 part by weight of active compound is mixed with the stated amount of solvent, and the concentrate is diluted with water to the desired concentration.
50 μL compound solution is filled in microtiter plates and 150 μL IPL41 insect medium (33%+15% sugar) is added to obtain a total volume of 200 μL per well. Afterwards the plates are sealed with parafilm through which a mixed population of the green peach aphid (Myzus persicae) can suck on the compound preparation.
(§4) After 5 days mortality in % is determined. 100% means all aphids have been killed and 0% means none of the aphids have been killed.

[5] = test system: larvae of the southern green stink bug (Nezara viridula); assay: Nezara viridula spray test; conditions: 96 h, barley plants, after 4 days
Protocol: Nezara viridula—Spray Test • Solvent: 78.0 parts by weight of acetone • 1.5 parts by weight of dimethylformamide • Emulsifier: alkylarylpolyglycol ether
as §2
Barley plants (Hordeum vulgare) are sprayed with a test solution containing the desired concentration of the active ingredient and are infested with larvae of the southern green stink bug (Nezara viridula).
After 4 days mortality in % is determined. 100% means all the stink bugs have been killed; 0% means none of the stink bugs have been killed.

[6] = test system: cotton aphid (Aphis gossypii); assay: Aphis gossypii oral test; conditions: 120 h, after 5 days
Protocol: Aphis gossypii—Oral Test • Solvent: 100 Parts by Weight Acetone
as §3
50 μL compound solution is filled in microtiter plates and 150 μL IPL41 insect medium (33%+15% sugar) is added to obtain a total volume of 200 μL per well. Afterwards the plates are sealed with parafilm through which a mixed population of the cotton aphid (Aphis gossypii) can suck on the compound preparation.
as §4

[7] = test system: brown planthopper (Nilaparvata lugens); assay: Nilaparvata lugens spray test; conditions: 96 h, rice plants, after 4 days
Protocol: Nilaparvata lugens—Spray Test • Solvent: 78.0 parts by weight of acetone • 1.5 parts by weight of dimethylformamide • Emulsifier: alkylarylpolyglycol ether
as §1
Rice plants (Oryza sativa) are sprayed with a preparation of the active ingredient of the desired concentration and the plants are infested with the brown planthopper (Nilaparvata lugens).
After 4 days mortality in % is determined. 100% means all planthoppers have been killed and 0% means none of the planthoppers have been killed.

[8] = test system: green peach aphid (Myzus persicae); assay: Myzus persicae spray test; conditions: foliar, 120 h, Chinese cabbage leaf disks, after 5 days
Protocol: Myzus persicae—Spray Test • Solvent: 78.0 parts by weight acetone • 1.5 parts by weight dimethylformamide • Emulsifier: alkylarylpolyglycol ether
as §1
Chinese cabbage (Brassica pekinensis) leaf disks infected with all instars of the green peach aphid (Myzus persicae), are sprayed with a preparation of the active ingredient of the desired concentration.
as §4

[9] = test system: cattle tick larvae (Rhipicephalus microplus); assay: Rhipicephalus (Boophilus) microplus in-vitro contact test, larval cattle tick (strain Parkhurst, resistant against synthetic pyrethroids); conditions: 1 μg/cm^2 (=100 g/ha), after 48 hours, read-out: efficacy (larvae dead or moribund)
Protocol: Rhipicephalus (Boophilus) Microplus—In-Vitro Contact Tests Larval Cattle Tick (Strain Parkhurst, Resistant Against Synthetic Pyrethroids)
(§5) 9 mg compound is solved in 1 mL acetone and diluted with acetone to the desired concentration. 250 μL of the test solution is filled in 25 mL glass test tubes and homogeneously distributed on the inner walls by rotation and tilting on a shaking device (2 h at 30 rpm). With a compound concentration of 900 ppm, an inner surface of 44.7 cm^2 and a homogeneous distribution, a dose of 5 μg/cm^2 is achieved.
After the solvent has evaporated, each test tube is filled with 20-50 cattle tick larvae (Rhipicephalus microplus), closed with a perforated lid and incubated in a horizontal position at 85% relative humidity and 27° C. in an incubator. After 48 hours efficacy is determined. The larvae are patted on the ground of the tubes and negative geotactic behavior is recorded.
An efficacy of 100% means all larvae are dead or moribund; 0% means no larvae are dead or moribund.

[10] = test system: adult brown dog ticks (Rhipicephalus sanguineus); assay: Rhipicephalus sanguineus in-vitro contact test with adult brown dog ticks; conditions: 1 μg/cm^2 (=100 g/ha), after 48 hours
Protocol: Rhipicephalus sanguineus—In-Vitro Contact Tests with Adult Brown Dog Ticks
as §5
After the solvent has evaporated, each test tube is filled with 5-10 adult brown dog ticks (Rhipicephalus sanguineus), closed with a perforated lid and incubated in a lying position at room temperature and relative humidity. After 48 hours efficacy is determined. The ticks are patted on the ground of the tubes and are incubated on a heating plate at 45-50° C. for at most 5 minutes. Immotile or uncoordinated moving ticks, which are not able to escape the heat by climbing upwards, are marked as dead or moribund.
An efficacy of 100% means all ticks are dead or moribund; 0% means no ticks are dead or moribund.

[11] = test system: adult flies Musca domestica strain WHO-N; assay: Musca domestica test (MUSCDO surface treatment & contact assay); conditions: 24 hours after contact, read-out: efficacy (mortality); for mortality at 20 mg/m2: surface concentration 20 mg/m^2, 30 minutes exposure; for mortality at 4 mg/m2: surface concentration 4 mg/m^2, 30 minutes exposure
Protocol: Musca domestica Test (MUSCDO Surface Treatment & Contact Assay) • Solvent: Aceton+2000 ppm rapeseed oil methyl ester (RME)
In order to produce a sufficient, active ingredient containing solution it is necessary to solve the test compound in the solvent-mix (acetone at 2 mg/ml/RME 2000 ppm). This solution is pipetted onto a glazed tile and after evaporation of the acetone, adult flies of the species Musca domestica strain WHO-N are placed onto the dried surface. The exposure time is 30 minutes. Mortality in percent (%) is determined 24 hours after contact of the insects to the treated surface. 100% mortality means that all tested insects are dead, whereas 0% means that no insect died.

[12] = test system: adult mosquitoes Culex quinquefasciatus strain P00; assay: Culex quinquefasciatus test (CULXFA surface treatment & contact assay); conditions: 24 hours after contact, read-out: efficacy (mortality); for mortality at 4 mg/m2: surface concentration 4 mg/m^2, 30 minutes exposure; for mortality at 20 mg/m2: surface concentration 20 mg/m^2, 30 minutes exposure
Protocol: Culex quinquefasciatus Test (CULXFA Surface Treatment & Contact Assay) • Solvent: Aceton+2000 ppm rapeseed oil methyl ester (RME)
In order to produce a sufficient, active ingredient containing solution it is necessary to solve the test compound in the solvent-mix (acetone at 2 mg/ml/RME 2,000 ppm). This solution is pipetted onto a glazed tile and after evaporation of the acetone, adult mosquitoes of the species Culex quinquefasciatus strain P00 are placed onto the dried surface. The exposure time is 30 minutes. Mortality in percent (%) is determined 24 hours after contact of the insects to the treated surface. 100% mortality means that all tested insects are dead, whereas 0% means that no insect died.

Compound	mortality at 100 g/ha [1]	mortality at 4 mg/m2 [2]	pest or weed control at 32 µg/disc, 100 g/ha [3]	mortality at 20 ppm [4]	mortality at 100 ppm [6]	pest or weed control at 1 µg/cm2, 100 g/ha [9]	mortality at 20 mg/m2 [2]	mortality at 20 mg/m2 [11]	other results
C[C@H](NC(=O)c1cc(OC(F)(F)F)cc(S(C)(=O)=O)c1)c1nc2cccnc2n1-c1ccc(C#N)cn1 [Example I-4]	100%	80 to 100%	100%	100%	100%				mortality at 500 g/ha [5]: 100%; mortality at 500 g/ha [7]: 90%
C[C@H](NC(=O)c1cc(C#N)cc(C2(C#N)CC2)c1)c1nc2cccnc2n1-c1ccc(C#N)cn1 [Example I-6]	100%	80 to 100%				90%			mortality at 100 g/ha [8]: 90%
CC(NC(=O)c1cc(C(F)(F)F)cc(C(F)(F)F)c1)c1nc2cccnc2n1-c1ccc(Cl)cn1 (stereo not shown) [Example I-8]	100%		100%			100%	80 to 100%	80 to 100%	efficacy (ticks dead or moribund) [10]: 80%
CC(NC(=O)c1cc(OC(F)(F)F)cc(OC(F)(F)F)c1)c1nc2cccnc2n1-c1ccc(Cl)cn1 (stereo not shown) [Example I-9]	100%		100%	100%	100%	80%		80 to 100%	mortality at 500 g/ha ([8]; 500 g/ha): 90%
CC(NC(=O)c1cc(Cl)cc(S(C)(=O)=O)c1)c1nc2cccnc2n1-c1ccc(Cl)cn1 (stereo not shown) [Example I-10]	100%	80 to 100%		100%	100%		80 to 100%		mortality at 4 mg/m2 [12]: 80 to 100%; mortality at 500 g/ha [5]: 100%
CC(NC(=O)c1cc(OC(F)(F)F)cc(C2CC2)c1)c1nc2cccnc2n1-c1ccc(Cl)cn1 (stereo not shown) [Example I-13]						90%			efficacy (ticks dead or moribund) [10]: 80%
C[C@H](NC(=O)c1cc(C(F)F)n(C)n1)c1nc2cccnc2n1-c1ccc(C#N)cn1 [Example I-17]									efficacy (ticks dead or moribund) [10]: 100%
COC(=O)c1ccc(-n2c(C(C)NC(=O)c3cc(OC(F)(F)F)cc(S(C)(=O)=O)c3)nc3cccnc32)nc1 (stereo not shown) [Example I-24]		80 to 100%		100%	100%		80 to 100%		mortality at 4 mg/m2 [12]: 80 to 100%; mortality at 20 mg/m2 [12]: 80 to 100%
CC(NC(=O)c1cc(C(F)(F)F)cc(C(F)(F)F)c1)c1nc2cccnc2n1-c1ccc(C(=O)N(C)C)cn1 (stereo not shown) [Example I-26, 6-(2-{1-[3,5-bis(trifluoromethyl)benzamido]ethyl}-3H-imidazo[4,5-b]pyridin-3-yl)-N,N-dimethylnicotinamide]							80 to 100%		mortality at 100 g/ha [8]: 90%; mortality at 500 g/ha [7]: 100%
CC(NC(=O)c1cc(C(F)(F)F)cc(C(F)(F)F)c1)c1nc2cccnc2n1-c1ccc(C#N)cn1 (stereo not shown) [Example I-35]	100%	80 to 100%	100%				80 to 100%	80 to 100%	mortality at 20 mg/m2 [12]: 80 to 100%; mortality at 100 g/ha [8]: 100%; mortality at 4 mg/m2 [11]: 80 to 100%
CC(NC(=O)c1cc(OC(F)F)cc(OC(F)F)c1)c1nc2cccnc2n1-c1ccc(C#N)cn1 (stereo not shown) [Example I-40]	100%	80 to 100%	100%				80 to 100%	80 to 100%	mortality at 4 mg/m2 [11]: 80 to 100%; mortality at 500 g/ha [7]: 90%
